Reference: US10344039B2, “Macrocyclic spirocarbamate derivatives as factor XIa inhibitors, pharmaceutically acceptable compositions and their use” (MERCK SHARP & DOHME CORP., priority 2015, dated 2019)

How the values were obtained:
[1] = target: T1, purified human Factor XIa (Homo sapiens, UniProt P03951); experiment: Factor XIa Assay; format: biochemical; details: purified human Factor XIa 40 pM; substrate Z-Gly-Pro-Arg-AFC 100 μM; 50 mM HEPES pH 7.4; read-out: Hu FXIa Ki
T1 construct: purified human Factor XIa; purchased Sekisui Diagnostics
T1 sequence (P03951 388-625 limits assumed): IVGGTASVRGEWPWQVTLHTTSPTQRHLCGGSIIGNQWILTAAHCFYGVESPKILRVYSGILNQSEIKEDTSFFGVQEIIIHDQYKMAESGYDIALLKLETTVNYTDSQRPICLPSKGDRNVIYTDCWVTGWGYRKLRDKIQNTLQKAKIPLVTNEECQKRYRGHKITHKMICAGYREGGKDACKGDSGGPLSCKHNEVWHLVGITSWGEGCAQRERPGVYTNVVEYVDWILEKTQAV
T1 sequence (P03951 19-387 partner limits assumed): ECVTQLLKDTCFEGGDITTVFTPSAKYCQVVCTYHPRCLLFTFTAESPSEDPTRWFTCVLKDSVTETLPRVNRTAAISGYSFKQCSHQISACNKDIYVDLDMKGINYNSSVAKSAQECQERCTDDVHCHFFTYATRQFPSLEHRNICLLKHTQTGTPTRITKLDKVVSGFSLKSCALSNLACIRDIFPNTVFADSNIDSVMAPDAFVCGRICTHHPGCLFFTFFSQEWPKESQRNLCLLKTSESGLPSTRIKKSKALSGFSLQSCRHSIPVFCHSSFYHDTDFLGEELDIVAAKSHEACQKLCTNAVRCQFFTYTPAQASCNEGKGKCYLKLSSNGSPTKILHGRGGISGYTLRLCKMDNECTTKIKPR
Summary of the method: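 Purified human FXIa at 40 pM, in 50 mM HEPES pH 7.4 with 150 mM NaCl, 5 mM CaCl2 and 0.1% PEG 8000, was preequilibrated with inhibitor. Initial hydrolysis rates of Z-Gly-Pro-Arg-AFC were then measured at room temperature or 37 °C. Ki was derived from Vo/Vi = 1 + [I]/Ki, assuming competitive inhibition.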

[2] = target: T2, purified Human plasma kallikrein (Homo sapiens, UniProt P03952); experiment: Kallikrein Assay; format: biochemical; details: purified Human plasma kallikrein 0.5 nM; substrate Acetyl-K-P-R-AFC; 50 mM HEPES pH 7.4; Ki from IC50 by Cheng Prusoff equation; read-out: Hu P. Kallikrein
T2 construct: yields a heavy chain (371 amino acids) and a light chain (248 amino acids); purchased Enzyme Research Laboratories
T2 sequence (P03952 391-638 limits assumed): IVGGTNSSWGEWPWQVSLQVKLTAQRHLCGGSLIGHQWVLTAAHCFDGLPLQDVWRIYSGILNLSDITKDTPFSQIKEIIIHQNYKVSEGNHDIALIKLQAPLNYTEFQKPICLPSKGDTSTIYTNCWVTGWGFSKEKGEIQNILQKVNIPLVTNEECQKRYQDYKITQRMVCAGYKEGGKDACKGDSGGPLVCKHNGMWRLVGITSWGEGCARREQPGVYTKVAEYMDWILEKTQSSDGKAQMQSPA
T2 sequence (P03952 20-390 partner limits assumed): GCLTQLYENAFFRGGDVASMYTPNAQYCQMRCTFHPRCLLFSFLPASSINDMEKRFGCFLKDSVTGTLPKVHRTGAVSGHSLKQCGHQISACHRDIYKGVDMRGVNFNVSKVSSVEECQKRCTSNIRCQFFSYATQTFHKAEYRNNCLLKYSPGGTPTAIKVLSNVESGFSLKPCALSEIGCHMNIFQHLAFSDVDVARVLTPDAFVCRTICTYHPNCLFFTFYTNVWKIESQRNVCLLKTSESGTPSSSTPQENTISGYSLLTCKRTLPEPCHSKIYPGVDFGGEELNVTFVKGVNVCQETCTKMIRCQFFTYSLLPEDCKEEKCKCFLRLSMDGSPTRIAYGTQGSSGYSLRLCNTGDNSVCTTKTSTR
Experimental: The effectiveness of a compound of the present invention as an inhibitor of Kallikrein can be determined using a relevant purified serine protease, and an appropriate synthetic substrate. The rate of hydrolysis of the chromogenic or fluorogenic substrate by the relevant serine protease was measured both in the absence and presence of compounds of the present invention. Assays were conducted at room temperature or at 37° C. […] A decrease in the rate of fluorescence change in the presence of inhibitor is indicative of enzyme inhibition. Such methods are known to one skilled in the art. The results of this assay are expressed as the inhibitory constant, Ki. Kallikrein determinations were made in 50 mM HEPES buffer at pH 7.4 containing 150 mM NaCl, 5 mM CaCl2, and 0.1% PEG 8000 (polyethylene glycol; Fisher Scientific). Determinations were made using purified Human plasma kallikrein at a final concentration of 0.5 nM (Enzyme Research Laboratories) and the synthetic substrate, Acetyl-K—P-R-AFC (Sigma # C6608) at a concentration of […]. Activity assays were performed by diluting a stock solution of substrate at least tenfold to a final concentration ≤0.2 Km into a solution containing enzyme or enzyme equilibrated with inhibitor. Times required to achieve equilibration between enzyme and inhibitor were determined in control experiments. The reactions were performed under linear progress curve conditions and fluorescence increase measured at 405 Ex/510 Em nm. Values were converted to percent inhibition of the control reaction (after subtracting 100% Inhibition value). IC50 was determined by inflection point from a four parameter logistic curve fit. Ki was calculated using the Cheng Prusoff equation, Ki=IC50/(1+([S]/Km)). The activities shown by this assay indicate that the compounds of the invention may be therapeutically useful for treating or preventing various cardiovascular and/or cerebrovascular thromboembolic conditions in patients suffering from unstable angina, acute coronary syndrome, refractory angina, myocardial infarction, transient ischemic attacks, atrial fibrillation, stroke such as thrombotic stroke or embolic stroke, venous thrombosis, coronary and cerebral arterial thrombosis, cerebral and pulmonary embolism, atherosclerosis, deep vein thrombosis, disseminated intravascular coagulation, and reocclusion or restenosis of recanalized vessels.

Compound | Ki [1] | Ki [2]
COC(=O)Nc1ccc2c(c1)NC(=O)[C@H](C)CCCC(C(=O)N1CCC[C@@]3(C1)OC(=O)Nc1ccc(Cl)c(F)c13)c1nc-2c(Cl)[nH]1 (stereo partly drawn) [Example 10, methyl ((5R,Z)-1^5-chloro-9-((R)-6-chloro-5-fluoro-2-oxo-1,2-dihydrospiro[benzo[d][1,3]oxazine-4,3′-piperidine]-1′-carbonyl)-5-methyl-4-oxo-1^1H-3-aza-1(4,2)-imidazola-2(1,2)-benzenacyclononaphane-2^4-yl)carbamate] | 0.67 nM | 0.96 nM
COC(=O)Nc1ccc2c(c1)NC(=O)CCCC[C@@H](C(=O)N1CC[C@@]3(C1)OC(=O)Nc1ccc(Cl)c(F)c13)c1nc-2c(C)[nH]1 [Example 13b, methyl ((R,Z)-9-((R)-6-chloro-5-fluoro-2-oxo-1,2-dihydrospiro[benzo[d][1,3]oxazine-4,3′-pyrrolidine]-1′-carbonyl)-1^5-methyl-4-oxo-1^1H-3-aza-1(4,2)-imidazola-2(1,2)-benzenacyclononaphane-2^4-yl)carbamate] | 0.6 nM | 1.11 nM
COC(=O)Nc1ccc2c(c1)NC(=O)[C@H](C)CCC[C@@H](C(=O)N1CCC[C@@]3(C1)OC(=O)Nc1ccc(Cl)c(F)c13)C1=NC=C2O1 [Example 14a, methyl ((5R,9R)-9-((R)-6-chloro-5-fluoro-2-oxo-1,2-dihydrospiro[benzo[d][1,3]oxazine-4,3′-piperidine]-1′-carbonyl)-5-methyl-4-oxo-3-aza-1(5,2)-oxazola-2(1,2)-benzenacyclononaphane-2^4-yl)carbamate] | 13.4 nM | 5.5 nM
COC(=O)Nc1ccc2c(c1)NC(=O)CCCC[C@@H](C(=O)N1CC[C@@]3(C1)OC(=O)Nc1ccc(Cl)cc13)c1cc-2ccn1 [Example 17a, methyl ((R)-9-((R)-6-chloro-2-oxo-1,2-dihydrospiro[benzo[d][1,3]oxazine-4,3′-pyrrolidine]-1′-carbonyl)-4-oxo-3-aza-1(4,2)-pyridina-2(1,2)-benzenacyclononaphane-2^4-yl)carbamate] | 9.2 nM | 3.8 nM
COC(=O)Nc1ccc2c(c1)NC(=O)CCCCC[C@@H](C(=O)N1CC[C@@]3(C1)OC(=O)Nc1ccc(Cl)c(F)c13)c1cc-2ccn1 [Example 18a, methyl ((R)-10-((R)-6-chloro-5-fluoro-2-oxo-1,2-dihydrospiro[benzo[d][1,3]oxazine-4,3′-pyrrolidine]-1′-carbonyl)-4-oxo-3-aza-1(4,2)-pyridina-2(1,2)-benzenacyclodecaphane-2^4-yl)carbamate] | 8.6 nM | 3.65 nM
COC(=O)Nc1ccc2c(c1)NC(=O)CC/C=C/C[C@@H](C(=O)N1CCC[C@@]3(C1)OC(=O)Nc1ccc(Cl)c(F)c13)c1cc-2ccn1 [Example 21a, methyl ((R,E)-10-((R)-6-chloro-5-fluoro-2-oxo-1,2-dihydrospiro[benzo[d][1,3]oxazine-4,3′-piperidine]-1′-carbonyl)-4-oxo-3-aza-1(4,2)-pyridina-2(1,2)-benzenacyclodecaphanen-2^4-yl)carbamate] | 59.4 nM | 17 nM
COC(=O)Nc1ccc2c(c1)NC(=O)CC/C=C\C[C@@H](C(=O)N1CCC[C@@]3(C1)OC(=O)Nc1ccc(Cl)c(F)c13)c1cc-2ccn1 [Example 22a, methyl ((R,Z)-10-((R)-6-chloro-5-fluoro-2-oxo-1,2-dihydrospiro[benzo[d][1,3]oxazine-4,3′-piperidine]-1′-carbonyl)-4-oxo-3-aza-1(4,2)-pyridina-2(1,2)-benzenacyclodecaphanen-2^4-yl)carbamate] | 2.88 nM | 0.77 nM
COC(=O)Nc1ccc2c(c1)NC(=O)CCCC[C@@H](C(=O)N1CC[C@@]3(C1)OC(=O)Nc1ccc(Cl)c(F)c13)c1ccnc-2c1 [Example 25a, methyl ((R)-9-((R)-6-chloro-5-fluoro-2-oxo-1,2-dihydrospiro[benzo[d][1,3]oxazine-4,3′-pyrrolidine]-1′-carbonyl)-4-oxo-3-aza-1(2,4)-pyridina-2(1,2)-benzenacyclononaphane-2^4-yl)carbamate] | 1.3 nM | 0.75 nM
COC(=O)Nc1ccc2c(c1)NC(=O)CCCCC(C(=O)N1CC[C@@]3(C1)OC(=O)Nc1ccc(Cl)cc13)c1cc(F)cc-2c1 (stereo partly drawn) [Example 28, methyl (9-((R)-6-chloro-2-oxo-1,2-dihydrospiro[benzo[d][1,3]oxazine-4,3′-pyrrolidine]-1′-carbonyl)-1^5-fluoro-4-oxo-3-aza-1(1,3),2(1,2)-dibenzenacyclononaphane-2^4-yl)carbamate] | 45.2 nM | 12.7 nM
COC(=O)Nc1ccc2c(c1)NC(=O)CCCC[C@@H](C(=O)N1CCC[C@@]3(C1)OC(=O)Nc1ccc(Cl)c(F)c13)c1cc(F)cc-2c1 [Example 30b, methyl ((R)-9-((R)-6-chloro-5-fluoro-2-oxo-1,2-dihydrospiro[benzo[d][1,3]oxazine-4,3′-piperidine]-1′-carbonyl)-1^5-fluoro-4-oxo-3-aza-1(1,3),2(1,2)-dibenzenacyclononaphane-2^4-yl)carbamate] | 68.8 nM | 1.52 nM
CCOC(=O)C1C/C=C/CC(C(=O)N2CCC[C@@]3(C2)OC(=O)Nc2ccc(Cl)c(F)c23)c2nc(c[nH]2)-c2ccc(NC(=O)OC)cc2N1 (stereo partly drawn) [Example 31, ethyl (1^2Z,6E)-9-((R)-6-chloro-5-fluoro-2-oxo-1,2-dihydrospiro[benzo[d][1,3]oxazine-4,3′-piperidine]-1′-carbonyl)-2^4-((methoxycarbonyl)amino)-1^1H-3-aza-1(4,2)-imidazola-2(1,2)-benzenacyclononaphan-6-ene-4-carboxylate] | 41.1 nM | 63.7 nM
COC(=O)Nc1ccc2c(c1)NC(=O)CCCC[C@H](NC(=O)N1CC[C@@]3(C1)OC(=O)Nc1ccc(Cl)cc13)c1nc-2c[nH]1 [Example 38, methyl ((S,Z)-9-((R)-6-chloro-2-oxo-1,2-dihydrospiro[benzo[d][1,3]oxazine-4,3′-pyrrolidine]-1′-carboxamido)-4-oxo-11H-3-aza-1(4,2)-imidazola-2(1,2)-benzenacyclononaphane-2^4-yl)carbamate] | 16.1 nM | 4.5 nM
